Experimental data taken from PubChem BioAssay (NCI).
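A five-concentration, 48-hour dose response in 96-well plates underlies each endpoint, interpolated linearly between surrounding concentrations. At the TGI there is no net growth.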

What was measured:
Test in all cases: NCI anticancer screen, dose series, 48 h
786-0 renal = test system: 786-0 renal
A498 renal = test system: A498 renal
A549 NSCLC = test system: A549 NSCLC
ACHN renal = test system: ACHN renal
BT-549 breast = test system: BT-549 breast
CAKI-1 renal = test system: CAKI-1 renal
CCRF-CEM leukemia = test system: CCRF-CEM leukemia
COLO 205 colon = test system: COLO 205 colon
DU-145 prostate = test system: DU-145 prostate
EKVX NSCLC = test system: EKVX NSCLC
HCC-2998 colon = test system: HCC-2998 colon
HCT-116 colon = test system: HCT-116 colon
HCT-15 colon = test system: HCT-15 colon
HL-60(TB) leukemia = test system: HL-60(TB) leukemia
HOP-92 NSCLC = test system: HOP-92 NSCLC
HS 578T breast = test system: HS 578T breast
HT29 colon = test system: HT29 colon
IGROV1 ovarian = test system: IGROV1 ovarian
K-562 leukemia = test system: K-562 leukemia
KM12 colon = test system: KM12 colon
LOX IMVI melanoma = test system: LOX IMVI melanoma
M14 melanoma = test system: M14 melanoma
MALME-3M melanoma = test system: MALME-3M melanoma
MCF7 breast = test system: MCF7 breast
MDA-MB-231 breast = test system: MDA-MB-231 breast
MDA-MB-435 = test system: MDA-MB-435
MDA-N = test system: MDA-N
MOLT-4 leukemia = test system: MOLT-4 leukemia
NCI-H226 lung = test system: NCI-H226 lung
NCI-H23 lung = test system: NCI-H23 lung
NCI-H460 lung = test system: NCI-H460 lung
NCI-H522 lung = test system: NCI-H522 lung
NCI/ADR-RES ovarian = test system: NCI/ADR-RES ovarian
OVCAR-3 ovarian = test system: OVCAR-3 ovarian
OVCAR-4 ovarian = test system: OVCAR-4 ovarian
OVCAR-5 ovarian = test system: OVCAR-5 ovarian
OVCAR-8 ovarian = test system: OVCAR-8 ovarian
PC-3 prostate = test system: PC-3 prostate
RPMI-8226 leukemia = test system: RPMI-8226 leukemia
RXF 393 renal = test system: RXF 393 renal
SF-268 CNS = test system: SF-268 CNS
SF-295 CNS = test system: SF-295 CNS
SF-539 CNS = test system: SF-539 CNS
SK-MEL-2 melanoma = test system: SK-MEL-2 melanoma
SK-MEL-28 melanoma = test system: SK-MEL-28 melanoma
SK-MEL-5 melanoma = test system: SK-MEL-5 melanoma
SK-OV-3 ovarian = test system: SK-OV-3 ovarian
SN12C renal = test system: SN12C renal
SNB-19 CNS = test system: SNB-19 CNS
SNB-75 CNS = test system: SNB-75 CNS
SR leukemia = test system: SR leukemia
SW-620 colon = test system: SW-620 colon
T-47D breast = test system: T-47D breast
U251 CNS = test system: U251 CNS
UACC-257 melanoma = test system: UACC-257 melanoma
UACC-62 melanoma = test system: UACC-62 melanoma
UO-31 renal = test system: UO-31 renal
HOP-62 NSCLC = test system: HOP-62 NSCLC
TK-10 renal = test system: TK-10 renal

With `CCCCC1C(=O)N(c2ccc(S(=O)(=O)Nc3ccccn3)cc2)N(c2ccc(O)c(C(=O)O)c2)C1=O` (centres undefined) the TGI (786-0 renal) was > 100 µM, the TGI (A498 renal) was > 100 µM and the TGI (A549 NSCLC) was > 100 µM. The TGI (ACHN renal) was > 100 µM, the TGI (BT-549 breast) was > 100 µM and the TGI (CAKI-1 renal) was > 100 µM. The TGI (CCRF-CEM leukemia) was > 100 µM, the TGI (COLO 205 colon) was > 100 µM and the TGI (DU-145 prostate) was > 100 µM. For the same molecule, the TGI (EKVX NSCLC) was > 100 µM, the TGI (HCC-2998 colon) was > 100 µM and the TGI (HCT-116 colon) was > 100 µM. The TGI (HCT-15 colon) was > 100 µM, the TGI (HL-60(TB) leukemia) was > 100 µM and the TGI (HOP-92 NSCLC) was > 100 µM. For the same molecule, the TGI (HS 578T breast) was > 100 µM, the TGI (HT29 colon) was > 100 µM and the TGI (IGROV1 ovarian) was > 100 µM. The TGI (K-562 leukemia) was > 100 µM, the TGI (KM12 colon) was > 100 µM and the TGI (LOX IMVI melanoma) was > 100 µM. The TGI (M14 melanoma) was > 100 µM, the TGI (MALME-3M melanoma) was > 100 µM and the TGI (MCF7 breast) was > 100 µM. The TGI (MDA-MB-231 breast) was > 100 µM, the TGI (MDA-MB-435) was > 100 µM and the TGI (MDA-N) was > 100 µM. For the same molecule, the TGI (MOLT-4 leukemia) was > 100 µM, the TGI (NCI-H226 lung) was > 100 µM and the TGI (NCI-H23 lung) was > 100 µM. The TGI (NCI-H460 lung) was > 100 µM, the TGI (NCI-H522 lung) was > 100 µM and the TGI (NCI/ADR-RES ovarian) was > 100 µM. For the same molecule, the TGI (OVCAR-3 ovarian) was > 100 µM, the TGI (OVCAR-4 ovarian) was > 100 µM and the TGI (OVCAR-5 ovarian) was > 100 µM. For the same molecule, the TGI (OVCAR-8 ovarian) was > 100 µM, the TGI (PC-3 prostate) was > 100 µM and the TGI (RPMI-8226 leukemia) was > 100 µM. For the same molecule, the TGI (RXF 393 renal) was > 100 µM, the TGI (SF-268 CNS) was > 100 µM and the TGI (SF-295 CNS) was > 100 µM. The TGI (SF-539 CNS) was > 100 µM, the TGI (SK-MEL-2 melanoma) was > 100 µM and the TGI (SK-MEL-28 melanoma) was > 100 µM. For the same molecule, the TGI (SK-MEL-5 melanoma) was > 100 µM, the TGI (SK-OV-3 ovarian) was > 100 µM and the TGI (SN12C renal) was > 100 µM. The TGI (SNB-19 CNS) was > 100 µM, the TGI (SNB-75 CNS) was > 100 µM and the TGI (SR leukemia) was > 100 µM. The TGI (SW-620 colon) was > 100 µM, the TGI (T-47D breast) was > 100 µM and the TGI (U251 CNS) was > 100 µM. The TGI (UACC-257 melanoma) was > 100 µM, the TGI (UACC-62 melanoma) was > 100 µM and the TGI (UO-31 renal) was > 100 µM.
For `O=C(/C=c1\oc(=O)/c(=C/C(=O)c2ccc(Cl)cc2)oc1=O)c1ccc(Cl)cc1`, the TGI (786-0 renal) was > 100 µM, the TGI (A498 renal) was > 100 µM and the TGI (A549 NSCLC) was > 100 µM. For the same molecule, the TGI (ACHN renal) was > 100 µM, the TGI (BT-549 breast) was 91 µM and the TGI (CAKI-1 renal) was > 100 µM. The TGI (CCRF-CEM leukemia) was > 100 µM, the TGI (COLO 205 colon) was > 100 µM and the TGI (DU-145 prostate) was > 100 µM. For the same molecule, the TGI (EKVX NSCLC) was > 100 µM, the TGI (HCC-2998 colon) was > 100 µM and the TGI (HCT-116 colon) was > 100 µM. For the same molecule, the TGI (HCT-15 colon) was > 100 µM, the TGI (HL-60(TB) leukemia) was > 100 µM and the TGI (HOP-62 NSCLC) was > 100 µM. For the same molecule, the TGI (HOP-92 NSCLC) was > 100 µM, the TGI (HS 578T breast) was > 100 µM and the TGI (HT29 colon) was > 100 µM. For the same molecule, the TGI (IGROV1 ovarian) was > 100 µM, the TGI (K-562 leukemia) was > 100 µM and the TGI (KM12 colon) was > 100 µM. The TGI (LOX IMVI melanoma) was > 100 µM, the TGI (M14 melanoma) was > 100 µM and the TGI (MALME-3M melanoma) was > 100 µM. The TGI (MCF7 breast) was > 100 µM, the TGI (MDA-MB-231 breast) was > 100 µM and the TGI (MDA-MB-435) was > 100 µM. For the same molecule, the TGI (MDA-N) was > 100 µM, the TGI (MOLT-4 leukemia) was 56 µM and the TGI (NCI-H226 lung) was > 100 µM. For the same molecule, the TGI (NCI-H23 lung) was > 100 µM, the TGI (NCI-H460 lung) was > 100 µM and the TGI (NCI-H522 lung) was 72.9 µM. The TGI (NCI/ADR-RES ovarian) was > 100 µM, the TGI (OVCAR-3 ovarian) was > 100 µM and the TGI (OVCAR-4 ovarian) was > 100 µM. The TGI (OVCAR-5 ovarian) was > 100 µM, the TGI (OVCAR-8 ovarian) was > 100 µM and the TGI (PC-3 prostate) was > 100 µM. For the same molecule, the TGI (RPMI-8226 leukemia) was > 100 µM, the TGI (RXF 393 renal) was > 100 µM and the TGI (SF-268 CNS) was > 100 µM. The TGI (SF-295 CNS) was > 100 µM, the TGI (SF-539 CNS) was > 100 µM and the TGI (SK-MEL-2 melanoma) was > 100 µM. For the same molecule, the TGI (SK-MEL-28 melanoma) was > 100 µM, the TGI (SK-MEL-5 melanoma) was > 100 µM and the TGI (SK-OV-3 ovarian) was > 100 µM. The TGI (SN12C renal) was > 100 µM, the TGI (SNB-19 CNS) was > 100 µM and the TGI (SR leukemia) was > 100 µM. The TGI (T-47D breast) was > 100 µM, the TGI (TK-10 renal) was > 100 µM and the TGI (U251 CNS) was > 100 µM. The TGI (UACC-257 melanoma) was > 100 µM, the TGI (UACC-62 melanoma) was > 100 µM and the TGI (UO-31 renal) was > 100 µM.
